Test results as given in paper PMC5216119, “An allosteric conduit facilitates dynamic multisite substrate recognition by the SCF^Cdc4 ubiquitin ligase” (Nature Communications, 2017).

Tests used:
Cdc4^WD40 [1] = target: T1, Cdc4^WD40 (Saccharomyces cerevisiae, UniProt P07834); settings: compared to a singly phosphorylated high-affinity CPD of similar affinity for Cdc4; cited from earlier work
T1 sequence (P07834 367-744): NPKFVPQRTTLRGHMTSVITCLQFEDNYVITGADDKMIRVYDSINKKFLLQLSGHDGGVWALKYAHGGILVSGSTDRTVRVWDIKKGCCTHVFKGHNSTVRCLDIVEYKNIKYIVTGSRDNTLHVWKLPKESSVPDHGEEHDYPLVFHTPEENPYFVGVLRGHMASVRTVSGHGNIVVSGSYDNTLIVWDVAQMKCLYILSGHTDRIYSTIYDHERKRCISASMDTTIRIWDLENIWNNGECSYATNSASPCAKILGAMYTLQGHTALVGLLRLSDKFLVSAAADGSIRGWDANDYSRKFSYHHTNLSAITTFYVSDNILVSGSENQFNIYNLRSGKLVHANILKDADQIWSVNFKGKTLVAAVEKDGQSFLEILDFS
Excerpt: The phenomenon of allostery, whereby ligand binding at one site alters interactions at a physically distant site, allows for complex control of protein function. […] SCF-I2 elicits this allosteric effect through structural changes that occlude the P−2 region of the CPD pocket.

Cdc4^WD40 [2] = target: T1, Cdc4^WD40; test: Isothermal titration calorimetry (ITC) with Cdc4^WD40; parameters: species or system yeast; settings: 20 °C, cell 30 μM Cdc4^WD40, syringe 100 μM pSic1 or 200 μM SCF-I2, 50 mM Na2HPO4 pH 7.2, 150 mM NaCl, 2 mM β-mercaptoethanol, single-site model, repeated twice, read-out: Kd value for binding Cdc4^WD40 (ITC)
Excerpt: We determined the effects of substrate binding on the isolated WD40 domain of Cdc4 (Cdc4^WD40), which is more amenable to NMR due to its size (40 kDa) than the minimal Cdc4-Skp1 complex (∼70 kDa). The N-terminal targeting region of Sic1 (residues 1-90, called Sic1^1-90), which contains 7 of the 9 Sic1 CPD sites and is sufficient for Cdc4 binding, was phosphorylated to completion by Cln2-Cdc28-Cks1 kinase (called pSic1). We used isothermal titration calorimetry (ITC) to determine the affinity of Cdc4^WD40 for pSic1 and SCF-I2 (Supplementary Fig. 1a–c). […] The Kd value for SCF-I2 binding Cdc4^WD40 was 0.6±0.02 μM, concordant with the ∼2 μM Ki value determined for SCF-I2-Cdc4-Skp1 by a fluorescence polarization competition assay.
ITC experiments were performed using VP-ITC and iTC200 microcalorimeters (MicroCal Inc., Northampton, MA) at 20 °C with the sample cell containing 30 μM Cdc4^WD40 and the syringe loaded with 100 μM pSic1 or 200 μM SCF-I2. The samples were dialysed in buffer containing 50 mM Na2HPO4, pH 7.2, 150 mM NaCl, 2 mM β-mercaptoethanol. Runs were performed using 13–20 injections at an interval of 120 s and each binding experiment was repeated twice. Using the Origin software provided by MicroCal Inc., heat associated with each injection was integrated and thermodynamic parameters were extracted by fitting the data to a single-site binding model.

Cdc4-Skp1 = settings: read-out: Ki value for SCF-I2-Cdc4-Skp1 by fluorescence polarization competition assay; cited from earlier work
Skp1-Cdc4 complex = Skp1-Cdc4 complex (Saccharomyces cerevisiae, UniProt P07834+P52286); test: Fluorescence polarization inhibition by SCF-I2 of Ash1 peptide binding to Skp1-Cdc4; parameters: species or system yeast; settings: compared with Ash1^18pT286/pT290 or Ash1^18pT286/pT290/pS294 peptides
Skp1-Cdc4 complex, sequence (P07834 whole entry): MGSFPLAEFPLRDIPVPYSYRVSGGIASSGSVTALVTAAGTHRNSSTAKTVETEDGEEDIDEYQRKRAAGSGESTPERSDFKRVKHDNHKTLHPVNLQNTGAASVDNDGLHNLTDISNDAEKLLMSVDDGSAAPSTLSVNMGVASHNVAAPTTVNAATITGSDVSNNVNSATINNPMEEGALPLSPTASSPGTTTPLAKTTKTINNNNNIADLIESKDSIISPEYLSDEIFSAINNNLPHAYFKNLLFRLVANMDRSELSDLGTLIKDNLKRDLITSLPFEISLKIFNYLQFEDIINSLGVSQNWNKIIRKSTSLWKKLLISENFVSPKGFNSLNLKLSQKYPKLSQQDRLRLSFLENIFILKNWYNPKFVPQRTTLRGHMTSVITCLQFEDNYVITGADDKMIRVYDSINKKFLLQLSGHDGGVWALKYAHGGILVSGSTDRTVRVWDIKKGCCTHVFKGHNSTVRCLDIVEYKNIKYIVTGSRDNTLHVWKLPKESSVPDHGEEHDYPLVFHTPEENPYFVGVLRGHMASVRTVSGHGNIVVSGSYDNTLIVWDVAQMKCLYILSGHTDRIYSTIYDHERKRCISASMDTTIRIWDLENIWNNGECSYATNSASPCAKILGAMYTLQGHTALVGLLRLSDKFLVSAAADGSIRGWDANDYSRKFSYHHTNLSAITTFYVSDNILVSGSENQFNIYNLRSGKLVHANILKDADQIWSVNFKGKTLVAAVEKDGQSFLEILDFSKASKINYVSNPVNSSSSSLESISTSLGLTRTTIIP
Skp1-Cdc4 complex, sequence (P52286 whole entry partner): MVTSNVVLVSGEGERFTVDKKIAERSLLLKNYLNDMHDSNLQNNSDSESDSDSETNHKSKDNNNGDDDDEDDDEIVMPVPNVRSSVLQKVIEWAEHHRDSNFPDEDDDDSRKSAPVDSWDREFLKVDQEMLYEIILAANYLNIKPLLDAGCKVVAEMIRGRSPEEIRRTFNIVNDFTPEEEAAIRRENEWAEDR
Excerpt: (f) Fluorescence polarization of the fluorescein-labelled Ash1 peptides (circle, pT286/pT290/pS294, square, pT286/pT290, triangle, pT290/pS294, inverted triangle doubly phosphorylated CycE peptide) in the presence of increasing concentrations of the recombinant Skp1-Cdc4 complex (mP, millipolarization unit). (g) Fluorescence polarization of the fluorescein-labelled Ash1 peptides (circle, pT286/pT290/pS294, square, pT286/pT290, triangle, pT290/pS294, inverted triangle, doubly phosphorylated CycE peptide) in the presence of increasing concentrations of the SCF-I2 inhibitor.
Fluorescence polarization assays containing 0.21 μM Skp1-Cdc4 complex and 10 nM fluorescently labelled cyclin E-derived or Ash1-derived phosphopeptides in 10 mM HEPES (pH 7.5), 40 mM NaCl, 0.1 mg ml^−1 BSA and 1 mM DTT in a final volume of 23.5 μl per well were performed on an Analyst HT plate reader (Molecular Devices Corp., Sunnyvale CA).

O=C(O)c1ccc2ccccc2c1-c1c(C(=O)O)ccc2ccccc12 [SCF-I2]
fold lower potency of SCF-I2 towards full-length Sic1 (Cdc4^WD40 [1]): 10 fold
Kd (Cdc4^WD40 [2]): 0.6 ± 0.02 µM
Ki (Cdc4-Skp1): ~2 µM
fold higher potency of SCF-I2 for inhibiting Ash1^18pT290/pS294 binding (Skp1-Cdc4 complex): 10 fold
